The data set in a line: Measurement of metabolic stability in human liver microsomes. The note with it: residual ratio of test compound after 30 minutes at 37° C. with human liver microsome, LC/MS/MS. It is filed as in vitro ADME. As for the experimental part: 1 mmol/L DMSO solutions of the compounds produced in the Examples were prepared. Each of the 1 mmol/L DMSO solutions was diluted with acetonitrile to 10 μmol/L, and then diluted with a 6.5 mmol/L Q-NADPH solution to 200 nmol/L. 50 μL of each solution was added to the reaction group and the non-reaction group. 50 μL of a 0.2 mg protein/mL human liver microsome (Mixed Gender, Pool of 50 livers; XenoTech, LLC) solution was added to the reaction group, followed by incubation at 37° C. for 30 minutes with shaking. After 400 μL of methanol was added to the non-reaction group, 50 μL of a 0.2 mg protein/mL human liver microsome solution was added to adjust the formulation. After incubation in the reaction group, 400 μL of methanol was added to stop the reaction. The samples of the reaction group and non-reaction group were allowed to stand at −20° C. for about 30 minutes, followed by centrifugation at 4° C. at 3000 rpm for about 10 minutes. The supernatant was analyzed using LC/MS/MS, and the residual ratio of the test compound was calculated from the peak area value of the test compound using the following formula. The measurement was carried out using the following devices: HPLC system: LC-20A-Series High Performance Liquid Chromatograph (Shimadzu Corporation) and mass spectrometer: API 4000 (AB Sciex Pte. Ltd.), or using equivalent devices. Residual ratio (%)=(peak area value of test compound in reaction group/peak area value of test compound in non-reaction group)×100 Results
(In general: Microsomes from liver hold many membrane-bound enzymes, among them those of drug oxidation.)

`CC(=O)c1ccc(C(c2ccc(C)c(CN3C[C@@H](C)Oc4ccccc4S3(=O)=O)c2)C(C)(C)C(=O)O)s1` (stereo partly drawn) [Compound 12, 3-(5-acetylthiophen-2-yl)-2,2-dimethyl-3-(4-methyl-3-{[(R)-4-methyl-1,1-dioxide-3,4-dihydro-2H-benzo[b][1,4,5]oxathiazepin-2-yl]methyl}phenyl)propanoic acid]: the “Metabolic stability*” value worked out at 56%. Regarding `CC[C@@H]1CN(Cc2cc(C(CC(=O)O)c3cc(F)c(C(C)=O)s3)ccc2C)S(=O)(=O)c2ccccc2O1` (stereo partly drawn) [Compound 8, 3-(5-acetyl-4-fluorothiophen-2-yl)-3-(3-{[(R)-4-ethyl-1,1-dioxide-3,4-dihydro-2H-benzo[b][1,4,5]oxathiazepin-2-yl]methyl}-4-methylphenyl)propanoic acid], the “Metabolic stability*” value was determined as 36%. As to `CC[C@@H]1CN(Cc2cc(C(CC(=O)O)c3sc(C(C)=O)cc3C)ccc2C)S(=O)(=O)c2ccccc2O1` (stereo partly drawn) [Compound 14, 3-(5-acetyl-3-methylthiophen-2-yl)-3-(3-{[(R)-4-ethyl-1,1-dioxide-3,4-dihydro-2H-benzo[b][1,4,5]oxathiazepin-2-yl]methyl}-4-methylphenyl)propanoic acid], the “Metabolic stability*” value stood at 25%. The value for `CC[C@@H]1CN(Cc2cc(C(CC(=O)O)c3ccc(C(=O)NC)s3)ccc2C)S(=O)(=O)c2ccccc2O1` (stereo partly drawn) [Compound 21, 3-(3-{[(R)-4-ethyl-1,1-dioxide-3,4-dihydro-2H-benzo[b][1,4,5]oxathiazepin-2-yl]methyl}-4-methylphenyl)-3-[5-(methylcarbamoyl)thiophen-2-yl]propanoic acid] was 74%; that for `CC[C@@H]1CN(Cc2cc(C(CC(=O)O)c3cccs3)ccc2C)S(=O)(=O)c2ccccc2O1` (stereo partly drawn) [Compound 17, 3-(3-{[(R)-4-ethyl-1,1-dioxide-3,4-dihydro-2H-benzo[b][1,4,5]oxathiazepin-2-yl]methyl}-4-methylphenyl)-3-(thiophen-2-yl)propanoic acid] was 36%.

For `CC[C@@H]1CN(Cc2cc(C(c3cc(F)c(C(C)=O)s3)C(C)(C)C(=O)O)ccc2C)S(=O)(=O)c2ccccc2O1` (stereo partly drawn) [Compound 11, 3-(5-acetyl-4-fluorothiophen-2-yl)-3-(3-{[(R)-4-ethyl-1,1-dioxide-3,4-dihydro-2H-benzo[b][1,4,5]oxathiazepin-2-yl]methyl}-4-methylphenyl)-2,2-dimethylpropanoic acid], the “Metabolic stability*” value amounted to 27%. As for `CC[C@@H]1CN(Cc2cc(C(c3ccc(C(C)=O)s3)C(C)(C)C(=O)O)ccc2C)S(=O)(=O)c2ccccc2O1` (stereo partly drawn) [Compound 6, 3-(5-acetylthiophen-2-yl)-3-(3-{[(R)-4-ethyl-1,1-dioxide-3,4-dihydro-2H-benzo[b][1,4,5]oxathiazepin-2-yl]methyl}-4-methylphenyl)-2,2-dimethylpropanoic acid], the “Metabolic stability*” value is given as 32%.

Take `CC[C@@H]1CN(Cc2cc(C(CC(=O)O)c3cc(C)c(C(C)=O)s3)ccc2C)S(=O)(=O)c2ccccc2O1` (stereo partly drawn) [Compound 7, 3-(5-acetyl-4-methylthiophen-2-yl)-3-(3-{[(R)-4-ethyl-1,1-dioxide-3,4-dihydro-2H-benzo[b][1,4,5]oxathiazepin-2-yl]methyl}-4-methylphenyl)propanoic acid]: the “Metabolic stability*” value was found to be 30%. The value for `CC[C@@H]1CN(Cc2cc(C(CC(=O)O)c3ccc(C#N)s3)ccc2C)S(=O)(=O)c2ccccc2O1` (stereo partly drawn) [Compound 19, 3-(5-cyanothiophen-2-yl)-3-(3-{[(R)-4-ethyl-1,1-dioxide-3,4-dihydro-2H-benzo[b][1,4,5]oxathiazepin-2-yl]methyl}-4-methylphenyl)propanoic acid] was 23%; that for `CC[C@@H]1CN(Cc2cc(C(CC(=O)O)c3cc(C(C)=O)cs3)ccc2C)S(=O)(=O)c2ccccc2O1` (stereo partly drawn) [Compound 10, 3-(4-acetylthiophen-2-yl)-3-(3-{[(R)-4-ethyl-1,1-dioxide-3,4-dihydro-2H-benzo[b][1,4,5]oxathiazepin-2-yl]methyl}-4-methylphenyl)propanoic acid] was 39%.

Take `CC[C@@H]1CN(Cc2cc(C(c3cc(F)c(C(C)=O)s3)C(C)C(=O)O)ccc2C)S(=O)(=O)c2cnccc2O1` (stereo partly drawn) [Compound 52, 3-(5-acetyl-4-fluorothiophen-2-yl)-3-(3-{[(R)-4-ethyl-1,1-dioxide-3,4-dihydro-2H-pyrido[4,3-b][1,4,5]oxathiazepin-2-yl]methyl}-4-methylphenyl)-2-methylpropanoic acid]: the “Metabolic stability*” value is recorded as 53%. Turning to `CC[C@@H]1CN(Cc2cc(C(CC(=O)O)c3csc(C(C)=O)c3)ccc2C)S(=O)(=O)c2ccccc2O1` (stereo partly drawn) [Compound 15, 3-(5-acetylthiophen-3-yl)-3-(3-{[(R)-4-ethyl-1,1-dioxide-3,4-dihydro-2H-benzo[b][1,4,5]oxathiazepin-2-yl]methyl}-4-methylphenyl)propanoic acid], the “Metabolic stability*” value stood at 47%. The same measure for `CC[C@@H]1CN(Cc2cc(C(CC(=O)O)c3csc(C(=O)NC)c3)ccc2C)S(=O)(=O)c2ccccc2O1` (stereo partly drawn) [Compound 22, 3-(3-{[(R)-4-ethyl-1,1-dioxide-3,4-dihydro-2H-benzo[b][1,4,5]oxathiazepin-2-yl]methyl}-4-methylphenyl)-3-[5-(methylcarbamoyl)thiophen-3-yl]propanoic acid]: 77%; for `CC[C@@H]1CN(Cc2cc(C(CC(=O)O)c3ccc(C(C)=O)s3)ccc2C)S(=O)(=O)c2ccccc2O1` (stereo partly drawn) [Compound 5, 3-(5-acetylthiophen-2-yl)-3-(3-{[(R)-4-ethyl-1,1-dioxide-3,4-dihydro-2H-benzo[b][1,4,5]oxathiazepin-2-yl]methyl}-4-methylphenyl)propanoic acid]: 53%. With `CC[C@@H]1CN(Cc2cc(C(c3ccc(C(C)=O)s3)C(C)(C)C(=O)O)ccc2C)S(=O)(=O)c2c(F)cccc2O1` (stereo partly drawn) [Compound 9, 3-(5-acetylthiophen-2-yl)-3-(3-{[(R)-4-ethyl-9-fluoro-1,1-dioxide-3,4-dihydro-2H-benzo[b][1,4,5]oxathiazepin-2-yl]methyl}-4-methylphenyl)-2,2-dimethylpropanoic acid], the “Metabolic stability*” value was 38%. The value for `CC[C@@H]1CN(Cc2cc(C(CC(=O)O)c3ccc(C(N)=O)s3)ccc2C)S(=O)(=O)c2ccccc2O1` (stereo partly drawn) [Compound 23, 3-(5-carbamoylthiophen-2-yl)-3-(3-{[(R)-4-ethyl-1,1-dioxide-3,4-dihydro-2H-benzo[b][1,4,5]oxathiazepin-2-yl]methyl}-4-methylphenyl)propanoic acid] was 75%.

These data come from patent US12552757B2, “NRF2-activating compound” (SENJU PHARMACEUTICAL CO., LTD., priority 2019, dated 2026).
